# Data taken from patent publication US11214803B2, “Modulators of YAP1 expression” (Ionis Pharmaceuticals, Inc., priority 2019, dated 2022).
# How the values were obtained:
# [1] = Tolerability in Sprague-Dawley rats, body and organ weights (Example 22); type: in vivo; settings: male Sprague-Dawley rats, 50 mg/kg s.c. weekly for 6 weeks (7 doses)
# Method: Terminal body weight was measured prior to necropsy. Ionis oligonucleotides that caused any changes in organ weights outside the expected range for modified oligonucleotides were excluded from further studies.
# Yap1 mRNA [2] = test: Yap1 mRNA in SCC25 cells, RNA analysis (Example 25); type: cell-based, human; settings: free uptake, 48 hours, RTS4814, normalized to actin-beta
# Summary of the method: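 SCC25 squamous carcinoma cells at 5,000 cells/well dosed by free uptake with oligonucleotides at graded concentrations; non-complementary 3-10-3 cET gapmer as control. After ~48 h, Yap1 mRNA measured by RT-qPCR (RTS4814), normalized to actin-beta (RTS5002). Values are % of untreated control (% UTC).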
# SCC25 cells = test: Cell proliferation assay in SCC25 cells, CellTiter-Glo (Example 25); type: cell-based, human; settings: free uptake, 144 hours
# Yap1 mRNA [3] = test: Inhibition of human Yap1 mRNA in SNU449 hepatocellular carcinoma xenograft tumors (Example 26); type: in vivo; settings: SNU449 xenografts in NSG mice, 50 mg/kg twice weekly for five days, relative to PBS treated animals
# Summary of the method: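 Female NSG mice bearing subcutaneous SNU449 xenografts (about 100 mm^3) dosed with modified oligonucleotides at 50 mg/kg twice weekly for five days, four per group. Tumour Yap1 mRNA measured by RT-qPCR, normalized to actin-beta, expressed as % of PBS-treated controls.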
# [4] = Cynomolgus monkey tolerability, body and organ weight measurements (Example 34); type: in vivo; settings: cynomolgus monkeys, 35 mg/kg subcutaneously
# Summary of the method: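 Monkeys given modified oligonucleotides, observed twice daily, and euthanized on day 86, about 48 h after the last dose. Terminal body weight taken before necropsy; organ weights measured.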
# [5] = Cynomolgus monkey tolerability, hematology (Example 34); type: in vivo, cynomolgus monkeys
# Summary of the method: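 On day 44, blood from oligonucleotide-treated cynomolgus monkeys was collected into K2-EDTA. An automated analyzer measured red cell indices, reticulocytes, platelets and MPV, and total and differential white cell counts.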
# [6] = rat, in vivo, sc, 50 mg/kg
# Method: Male Sprague-Dawley rats were maintained on a 12-hour light/dark cycle and fed ad libitum with Purina normal rat chow. Groups of 4 Sprague-Dawley rats each were weekly injected subcutaneously with 50 mg/kg of Ionis oligonucleotide for 6 weeks (total 7 doses). Forty-eight hours after the last dose, the rats were euthanized; and organs, urine and plasma were harvested for further analysis.
# To evaluate the effect of Ionis oligonucleotides on kidney function, urinary levels of total protein and creatinine were measured using an automated clinical chemistry analyzer (Hitachi Olympus AU400c, Melville, N.Y.).
# [7] = Cynomolgus monkey tolerability, kidney and liver function markers (Example 34); settings: cynomolgus monkeys, 35 mg/kg subcutaneously, day 44
# Method: Prior to the study, the monkeys were kept in quarantine during which the animals were observed daily for general health. The monkeys were 2-4 years old and weighed 2-4 kg. Eleven groups of 4 randomly assigned male cynomolgus monkeys each were injected subcutaneously with Ionis oligonucleotide or saline in a clock-wise rotation between four different sites on the back. Following loading doses on days 1, 3, 5 and 7, the monkeys were dosed once per week (on days 14, 21, 28, 35, and 42) with 35 mg/kg of Ionis oligonucleotide.
# To evaluate the effect of Ionis oligonucleotides on hepatic and kidney function, blood samples were collected from all the study groups on day 44. The monkeys were fasted overnight prior to blood collection. Blood was collected in tubes without anticoagulant for serum separation. The tubes were kept at room temperature for a minimum of 90 minutes and then centrifuged at 3000 rpm for 10 minutes to obtain serum. Levels of various liver function markers were measured using a Toshiba 200FR NEO chemistry analyzer (Toshiba Co., Japan).
# [8] = cynomolgus monkey, in vivo, sc, 35 mg/kg
substance,measurement,setting,value
"1198728 (TATTAGAGTATGTGGC; modified gapmer, further chemistry not given here) [compound 1198728]",Kidney weight,[1]; end of study,2.9 g
same,Liver weight,[1]; end of study,15 g
same,Spleen weight,[1]; end of study,1.4 g
same,body weight,"[1]; terminal, prior to necropsy",381 g
same,"Yap1 mRNA, % UTC",Yap1 mRNA [2]; 0.04 μM,71 % UTC
same,"Yap1 mRNA, % UTC",Yap1 mRNA [2]; 0.2 μM,31 % UTC
same,"Yap1 mRNA, % UTC",Yap1 mRNA [2]; 1 μM,15 % UTC
same,"Yap1 mRNA, % UTC",Yap1 mRNA [2]; 5 μM,7 % UTC
same,cell proliferation (luminescence) % UTC,SCC25 cells; 0.04 μM,88 % UTC
same,cell proliferation (luminescence) % UTC,SCC25 cells; 0.2 μM,61 % UTC
same,cell proliferation (luminescence) % UTC,SCC25 cells; 1 μM,30 % UTC
same,cell proliferation (luminescence) % UTC,SCC25 cells; 5 μM,20 % UTC
same,"Yap1 mRNA in tumors, % control",Yap1 mRNA [3],64 % control
same,Heart weight,[4]; necropsy,10 g
same,Kidney weight,[4]; necropsy,15 g
same,Liver with gallbladder weight,[4]; necropsy,65 g
same,Spleen weight,[4]; necropsy,5 g
same,Terminal Body Weight,[4]; prior to necropsy,2722 g
same,BAS,[5]; [8],0.5%
same,EOS,[5]; [8],2.2%
same,HCT,[5]; [8],47%
same,HGB,[5]; [8],14 g/dL
same,LUC,[5]; [8],0.9%
same,LYM,[5]; [8],64%
same,MCH,[5]; [8],23 pg
same,MCHC,[5]; [8],29 g/dL
same,MCV,[5]; [8],80 fL
same,MON,[5]; [8],2.9%
same,NEU,[5]; [8],29%
same,PLT,[5]; [8],428 10^3/μL
same,RBC,[5]; [8],5.9e+06 µL⁻¹
same,RCDW,[5]; [8],12%
same,Retic,[5]; [8],1.3%
same,WBC,[5]; [8],10700 µL⁻¹
same,MPV,"[5]; cynomolgus monkeys, 35 mg/kg subcutaneously, day 44",8.0 fL
same,URINE P/C ratio (total protein to creatinine ratio),[6],7
same,ALB,[7],4.1 g/dL
same,ALP,[7],1165 IU/L
same,ALT,[7],58 IU/L
same,AST,[7],92 IU/L
same,BUN,[7],26 mg/dL
same,CREA,[7],0.9 mg/dL
same,GGT,[7],59 IU/L
same,GLO,[7],3.2 g/dL
same,GLU,[7],95 mg/dL
same,HDL,[7],95 mg/dL
same,LDL,[7],57 mg/dL
same,TBIL,[7],0.3 mg/dL
same,TG,[7],24 mg/dL
same,TP,[7],7.3 g/dL
